{"source": "patent US20240092863A1", "about": "“ANTIMICROBIAL TARGET” (priority 2020, published 2024)", "key": {"[1]": {"test_system": "S. aureus", "test": "S. aureus adhesion to HaCaT human keratinocyte cells (bacterial adhesion assay, CFU)", "type": "cell-based, Staphylococcus aureus", "details": "200 nM peptide; FIG. 1B", "experimental": "HaCaT human keratinocyte cells were cultured in DMEM supplemented with 10% (v/v) foetal bovine serum. Cells were subcultured by trypsinisation. For bacterial adhesion assays, HaCaT cells (10,000 cells/well) were grown overnight in 96-well plates.\nFor infection assays, bacterial were cultured from a single agar plate colony overnight in 5 ml of the appropriate growth medium. Then cultures were harvested by centrifugation, washed with 10 ml PBS, re-suspended in growth medium and incubated to achieve an OD600 equivalent to 5×10^8 CFU/ml. Cultures were again harvested by centrifugation, washed twice with PBS and re-suspended in DMEM at an appropriate density."}, "[2]": {"test_system": "S. aureus SH1000", "details": "cited from earlier work"}, "[3]": {"test_system": "S. aureus", "details": "reference [7]; cited from earlier work"}, "[4]": {"test_system": "P. aeruginosa PA01", "test": "Stability to bacterial cultures (P. aeruginosa PA01), residual activity in infection assay on HaCaT", "type": "in vitro ADME, Pseudomonas aeruginosa", "details": "4 hrs incubation with growing culture"}, "[5]": {"test": "Protease stability: chymotrypsin digestion, LC-MS", "type": "in vitro ADME", "details": "100 ug/ml peptide, chymotrypsin 2 mg/ml, 25° C., 18 hours; read-out: peptide still undigested in chymotrypsin at 18 hours"}, "[6]": {"test_system": "chymotrypsin", "test": "Protease stability: chymotrypsin digestion, LC-MS", "type": "in vitro ADME", "details": "100 ug/ml peptide, chymotrypsin 2 mg/ml, 25° C., 1 hour"}, "[7]": {"test_system": "trypsin", "test": "Protease stability: trypsin digestion, LC-MS", "type": "in vitro ADME", "details": "100 ug/ml peptide, trypsin 2 mg/ml, 37° C., 1 hour"}, "[8]": {"test": "Protease stability: trypsin digestion, LC-MS", "type": "in vitro ADME", "details": "100 ug/ml peptide, trypsin 2 mg/ml, 37° C., 18 hours; read-out: peptide still undigested in trypsin at 18 hours"}, "[9]": {"test_system": "S. aureus SH1000", "experimental": "Protease stability was assessed using trypsin, chymotrypsin and human serum. Peptides at 100 μg/ml were incubated in 100 mM ammonium bicarbonate+2 mM calcium chloride were digested using trypsin (2 mg/ml), chymotrypsin (2 mg/ml) or human serum (25% (v/v)) for 1 or 18 hours. Digestion was performed at 37° C. for trypsin and human serum, and 25° C. for chymotrypsin. Reaction was stopped with 2.5% formic acid for trypsin and chymotrypsin. Human serum proteins were precipitated with acetonitrile. Supernatants were analysed on LC-MS. Stability to bacterial proteases was also analysed in cultures of S. aureus SH100 and P. aeruginosa PA01. 20 nM peptides in Keratinocyte-Serum Free Medium (KFSM) were incubated with mid-log phase cultures of bacteria for 4 hours. Bacteria were then removed by centrifugation and the supernatants used in bacterial adhesion assays, as described below.\nHuman cells in 96-well plates were washed with 200 ul HBSS and incubated with 200 μl 5% (w/v) BSA for 1 hour at 37° C., washed twice with 200 μl HBSS prior to incubation for 1 hour at 37° C. with peptides diluted in DMEM, or DMEM alone for control well. After removal of peptide solutions, wells were infected for 1 hour at 37° C. with 50 μl bacteria suspended in DMEM at optimised multiplicities of infection (MOI). […]"}, "[10]": {"test_system": "S. aureus SH1000", "test": "Mouse in vivo skin infection model", "parameters": "species or system Staphylococcus aureus", "details": "mice, 200 nM peptide mixed with S. aureus SH1000 in a bandage on depilated skin; FIG. 9", "experimental": "C57/Bl6 mice were shaved to produce a bare area of approximately 2×2 cm. Depilatory cream was applied to depilate this area. A bandage was applied that contained a saline solution containing 200 nM of mouse 800-CAP, its scrambled control or human 800ii, and S. aureus SH1000. After 5 days, the mice were sacrificed and the depilated skin processed to release bacteria. The infection was assessed as CFU, and normalised to untreated control mice (=100). The experiment was performed 3 times using groups of 3 mice for each condition. Data are shown as the means of each separate experiment. Significance of the difference from 100 was calculated using a one-sample t test."}}, "note": "Where a SMILES comes first, the peptide text is derived from it. Bridges are numbered along the chain shown (N, C = ends). Where no end group is shown, it is not given here. [ ]: non-standard residue; d: D form. S5 = C=CCCC[C@](C)(N)C(=O)O", "data": [{"molecule": "1: synthetic peptide with helix-preserving Ala residues replacing Glu26/Arg29 (DAPQAETLKAIHYALN; Glu26/Arg29 mutant 800-Cap peptide) [compound 1]", "values": [{"measurement": "inhibitory activity against S. aureus adhesion to human keratinocyte line HaCaT", "setting": "[1]", "result": "no activity"}]}, {"molecule": "6: synthetic peptide with helix-preserving Ala residues replacing Ile35/Leu39 (DEPQRETLKAAHYAAN; Ile35/Leu39 mutant 800-Cap peptide) [compound 6]", "values": [{"measurement": "inhibitory activity against S. aureus adhesion to human keratinocyte line HaCaT", "setting": "[1]", "result": "no activity"}]}, {"molecule": "800: short peptide derived from the primary sequence of the tetraspanin CD9 large extracellular domain (EC2); previously published (EPQRETLKAIHYALN; 800 peptide sequence) [compound 800]", "values": [{"measurement": "activity against S. aureus adhesion to a wound model of human skin", "setting": "[2]; previously published (Ventress et al., 2016)", "result": "active"}, {"measurement": "bacterial burden in a 3D model of human skin", "setting": "[2]; reference [7]", "result": "effective in lowering bacterial burden"}, {"measurement": "functional activity, time and dose dependence", "setting": "[3]", "result": "functionally active in a time and dose-dependent manner"}, {"measurement": "reduction of adherence of Staphylococcus aureus binding to human keratinocyte cells", "setting": "[3]", "result": "can reduce the adherence"}]}, {"molecule": "CC[C@H](C)[C@H](NC(=O)[C@H](C)NC(=O)[C@H](CCCCN)NC(=O)[C@H](CC(C)C)NC(=O)[C@]1(C)CCCC=CCCC[C@](C)(NC(=O)[C@H](CCC(=O)O)NC(=O)[C@@H](N)CC(=O)O)C(=O)N[C@@H](CCC(N)=O)C(=O)N[C@@H](CCCNC(=N)N)C(=O)N[C@@H](CCC(=O)O)C(=O)N1)C(=O)N[C@@H](Cc1c[nH]cn1)C(=O)N[C@@H](Cc1ccc(O)cc1)C(=O)N[C@@H](C)C(=O)N[C@@H](CC(C)C)C(=O)N[C@@H](CC(N)=O)C(=O)O", "note": "[800i] (H-DE[S5]QRE[S5]LKAIHYALN-OH; staple 3-7; N-terminus and C-terminus assumed)", "values": [{"measurement": "resistance of peptide activity to P. aeruginosa PA01 culture", "setting": "[4]", "result": "resistant"}]}, {"molecule": "CC[C@H](C)[C@@H]1NC(=O)[C@@](C)(NC(=O)[C@H](CCCCN)NC(=O)[C@H](CC(C)C)NC(=O)[C@@H](NC(=O)[C@H](CCC(=O)O)NC(=O)[C@H](CCCNC(=N)N)NC(=O)[C@H](CCC(N)=O)NC(=O)[C@@H]2CCCN2C(=O)[C@H](CCC(=O)O)NC(=O)[C@@H](N)CC(=O)O)[C@@H](C)O)CCCC=CCCC[C@@](C)(C(=O)N[C@@H](CC(C)C)C(=O)N[C@@H](CC(N)=O)C(=O)O)NC(=O)[C@H](Cc2ccc(O)cc2)NC(=O)[C@H](Cc2c[nH]cn2)NC1=O", "note": "[800ii] (H-DEPQRETLK[S5]IHY[S5]LN-OH; staple 10-14; N-terminus and C-terminus assumed)", "values": [{"measurement": "remaining at 18 h, 100 µg/ml", "setting": "[5]", "result": 20, "unit": "%"}, {"measurement": "digestion by chymotrypsin after 1 hour", "setting": "[6]", "result": "not digested at all"}, {"measurement": "digestion by trypsin after 1 hour", "setting": "[7]", "result": "not digested at all"}, {"measurement": "remaining at 18 h, 100 µg/ml", "setting": "[8]", "result": 50, "unit": "%"}, {"measurement": "resistance of peptide activity to P. aeruginosa PA01 culture", "setting": "[4]", "result": "resistant"}]}, {"molecule": "DEPQRETLKAIHYALN [800-Cap]", "values": [{"measurement": "peptide activity degraded by incubation with S. aureus SH1000 culture", "setting": "[9]", "result": "~50", "unit": "%"}, {"measurement": "digestion by chymotrypsin after 1 hour", "setting": "[6]", "result": "completely digested"}, {"measurement": "digestion by trypsin after 1 hour", "setting": "[7]", "result": "completely digested"}, {"measurement": "peptide activity degraded by incubation with P. aeruginosa PA01 culture", "setting": "[4]; residual activity on S. aureus SH1000 / HaCaT", "result": "~50", "unit": "%"}]}, {"molecule": "SEQ ID NO: 17: shorter form of peptide 800-Cap (DEPQRETL; first short form of 800-Cap)", "values": [{"measurement": "inhibitory activity against S. aureus adhesion to human keratinocyte line HaCaT", "setting": "[1]", "result": "little or no inhibitory activity"}]}, {"molecule": "SEQ ID NO: 18: shorter form of peptide 800-Cap (KAIHYALN; second short form of 800-Cap)", "values": [{"measurement": "inhibitory activity against S. aureus adhesion to human keratinocyte line HaCaT", "setting": "[1]", "result": "little or no inhibitory activity"}]}, {"molecule": "mouse equivalent of 800-CAP: the mouse equivalent of 800-CAP; probably SEQ ID NO: 6 (DEPQRETLKAIHMALD; listed as Mus musculus)", "values": [{"measurement": "bacterial load in skin after 5 days", "setting": "[10]", "result": "significantly reduced"}]}, {"molecule": "peptide 7: synthetic peptide with helix-preserving Ala residues replacing Pro27/Thr31 (DEAQREALKAIHYALN; Pro27/Thr31 mutant 800-Cap peptide)", "values": [{"measurement": "inhibitory activity against S. aureus adhesion to human keratinocyte line HaCaT", "setting": "[1]", "result": "retained full activity"}]}]}
